According to patent publication US11401253B2, “16-methyl-oxacyclohexadecan-2-one and 16-methyl-azacyclohexadecan-2-one derivatives as antimicrobial agents” (THE UNIVERSITY OF MONTANA, priority 2017, dated 2022):
Values after ≈ are worked out from the molar mass of the structure shown. Values joined by “and” are separate entries in the source; they are usually repeats but may differ in a detail not shown here. Equal entries are not always repeated. Where two headings read alike, the source gives them in different places.

Legend:
K. pneumoniae (10031) = test: Antibiotic testing (MIC), gram negative K. pneumoniae; type: cell-based; settings: for MIC: Klebsiella pneumoniae, read-out: MIC, K. pneumoniae (10031)
Method: (§1) None of this collection of compounds were active against Gram-negative bacteria
(§2) Additionally, BPL 76 and derivatives were tested against a panel of gram negative bacteria including K. pneumonia, P. aeruginosa and E. coli (Table 12).

P. aeruginosa = test: Antibiotic testing (MIC), gram negative P. aeruginosa; type: cell-based; settings: Pseudomonas aeruginosa; read-out: MIC, P. aeruginosa
Method: as §1, §2

E. coli (25922) = test: Antibiotic testing (MIC), gram negative E. coli; type: cell-based; settings: for MIC: Escherichia coli, read-out: MIC, E. coli (25922)
Method: as §1, §2

MMP-3 = target: T1, MMP-3 (Homo sapiens, UniProt P08254); test: MMP-3 enzyme inhibition assay; type: biochemical
T1 construct: purchased BioMol
T1 sequence (P08254 100-477): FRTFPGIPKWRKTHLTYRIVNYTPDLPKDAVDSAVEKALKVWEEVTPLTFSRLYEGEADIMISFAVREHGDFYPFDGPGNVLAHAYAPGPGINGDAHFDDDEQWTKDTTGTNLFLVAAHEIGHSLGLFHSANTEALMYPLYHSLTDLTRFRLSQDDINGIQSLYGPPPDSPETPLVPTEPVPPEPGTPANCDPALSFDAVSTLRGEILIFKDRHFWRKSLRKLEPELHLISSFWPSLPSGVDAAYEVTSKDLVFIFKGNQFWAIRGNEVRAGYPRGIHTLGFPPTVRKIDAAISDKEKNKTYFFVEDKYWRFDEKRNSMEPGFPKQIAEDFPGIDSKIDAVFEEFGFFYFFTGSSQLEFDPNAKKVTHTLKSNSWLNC
Method: The two fungi were also co-cultured under controlled conditions. P. fuscum was grown in pure culture in potato dextrose broth (10×400 mL). After 24 h, an agar cube (8 mm^3) impregnated with P. camembertii/clavigerum mycelium was added to each flask and the resulting co-culture was shaken for 6 more days (200 rpm, room temperature). At time of harvest, methanol (50 mL/flask) was added, the mycelia were removed by gravity filtration and the broth was extracted with chloroform (3×2 L). The chloroform was removed in vacuo to yield 663 mg of crude extract. The crude extract was verified to be active in the MMP-3, caspase-1 and caspase-3 enzyme inhibition assays. Enzyme inhibitory activity was determined using specific BioMol enzyme inhibition assay kits for drug discovery as described in Stierle, A; Stierle, D. The Berkeleylactones, Antibiotic Macrolides from Fungal Coculture. J. Nat. Prod. 80, 4, 1150-1160.

[1] = system: Staphylococcus aureus (13709); test: Antibiotic testing (MIC), S. aureus 13709; type: cell-based; settings: growth inhibition ≥90% relative to drug-free controls, read-out: minimum inhibitory concentration, Staphylococcus aureus (13709)
Streptococcus pyogenes = test: Antibiotic testing (MIC), Streptococcus pyogenes; type: cell-based; settings: growth inhibition ≥90%, read-out: minimum inhibitory concentration, Streptococcus pyogenes
Candida glabrata = test: Antibiotic testing (MIC), Candida glabrata; type: cell-based; settings: Nakaseomyces glabratus; growth inhibition ≥90%; read-out: minimum inhibitory concentration, Candida glabrata
Bacillus subtilis = test: Antibiotic testing (MIC), Bacillus subtilis; type: cell-based; settings: growth inhibition ≥90%, read-out: minimum inhibitory concentration, Bacillus subtilis
C. albicans = test: Antibiotic testing (MIC), C. albicans; type: cell-based; settings: Candida albicans; growth inhibition ≥90%; read-out: minimum inhibitory concentration, C. albicans
B. anthracis = test: microbe, parasite or virus in culture; type: cell-based; settings: Bacillus anthracis, read-out: minimum inhibitory concentration, B. anthracis
S. aureus CAIRD116 = test: Antibiotic testing, methicillin-resistant S. aureus CAIRD116; type: cell-based; settings: methicillin-resistant strain; for MIC: Staphylococcus aureus, CAIRD116
Text: (§3) Both the methyl ester and the diacetate derivatives of BPL 76 slightly less but still very strong activity against the same four MRSA strains (Table 11). The activities of compounds BPL 76 and BPL 81 were compared to several known antibiotics against three methicillin-resistant strains of S. aureus [FIG. 6, comparative data provided by Hartford Hospital, Center for Anti-Infective Research and Development (CAIRD)].

S. aureus CAIRD142 = test: Antibiotic testing, methicillin-resistant S. aureus CAIRD142; type: cell-based; settings: methicillin-resistant strain; for MIC: Staphylococcus aureus, CAIRD142
Text: as §3

S. aureus CAIRD148 = test: Antibiotic testing, methicillin-resistant S. aureus CAIRD148; type: cell-based; settings: methicillin-resistant strain; for MIC: Staphylococcus aureus, CAIRD148
Text: as §3

S. aureus (NE277) = test: Antibiotic testing, methicillin-resistant S. aureus NE277; type: cell-based; settings: for MIC: Staphylococcus aureus, read-out: antibiotic testing data (MIC), S. aureus (NE277); for antibiotic testing data (MIC), S. aureus (NE277): methicillin-resistant strain
Text: as §3

[2] = system: non-replicating persistence Mycobacterium tuberculosis (NRP-TB); test: Low oxygen recovery assay (LORA), non-replicating persistence Mtb; type: cell-based; settings: Mycobacterium tuberculosis, read-out: MIC, LORA
Vero cell = test: Cytotoxicity (MTS), Vero cells; type: cell-based, monkey; settings: Primates, 72 hours exposure
HepG2 = test: Cytotoxicity (MTS), HepG2 cells; type: cell-based; settings: Homo sapiens, 72 hours exposure
J774 = test: Cytotoxicity (MTS), J774 cells; type: cell-based, murine; settings: Mus musculus, 72 hours exposure
[3] = system: Mycobacterium tuberculosis; test: microbe, parasite or virus in culture; settings: read-out: MIC, MABA
[4] = non-replicating persistence, hypoxic conditions
[5] = non-replicating persistence conditions, known antibiotics

SMILES	MIC (K. pneumoniae (10031))	MIC (P. aeruginosa) [µM]	MIC (E. coli (25922))	MIC [1] [µg/mL]	MIC (Streptococcus pyogenes) [µg/mL]	MIC (Candida glabrata) [µg/mL]	MIC (Bacillus subtilis) [µg/mL]	MIC (C. albicans) [µg/mL]	MIC (B. anthracis) [µg/mL]	IC50 (Vero cell) [µg/mL]	IC50 (HepG2) [µg/mL]	IC50 (J774) [µg/mL]	MIC [3]	further results
C[C@H]1OC(=O)/C=C/C(=O)[C@@H](OC(=O)CCC(=O)O)CCCCCCCC[C@@H]1O [BPL 77, 4-(((6S,15S,16R,E)-15-hydroxy-16-methyl-2,5-dioxooxacyclohexadec-3-en-6-yl)oxy)-4-oxobutanoic acid]	1000 µM and 398 µg/mL	> 1000	500 µM and 199 µg/mL	–	–	–	–	–	–	–	–	–	–	activity against K. pneumonia (in words) (K. pneumoniae (10031)): weakly active; activity against E. coli (in words) (E. coli (25922)): weakly active
C[C@@H]1CC(O)CCCCCCC[C@H](OC(=O)CCC(=O)O)C(=O)/C=C/C(=O)O1 (stereo partly drawn) [BPL 78, 4-(((6S,16R,E)-14-hydroxy-16-methyl-2,5-dioxooxacyclohexadec-3-en-6-yl)oxy)-4-oxobutanoic acid]	> 1000 µM	> 1000	> 1000 µM	–	–	–	–	–	–	–	–	–	–	MMP-3 inhibition (MMP-3): weaker inhibitors
CC(=O)O[C@H]1CCCCCCCC[C@H](OC(C)=O)[C@H](OC(C)=O)/C=C/C(=O)O[C@@H]1C [BPL 79 Ac, (2R,3S,12S,13R,E)-2-methyl-16-oxooxacyclohexadec-14-ene-3,12,13-triyl triacetate]	> 500 µM	> 500	> 500 µM	–	–	–	–	–	–	–	–	–	–	–
C[C@H]1OC(=O)/C=C/[C@@H](O)[C@@H](O)CCCCCCCC[C@@H]1O [BPL 79, (5R,6S,15 S,16R,E)-5,6,15-trihydroxy-16-methyloxacyclohexadec-3-en-2-one]	> 1000 µM	> 1000	> 1000 µM	19 (≈ 63.3 µM)	150 (≈ 499 µM)	> 300	> 300	> 300	75 (≈ 250 µM)	–	–	–	–	–
C[C@@H]1CCCCCCCCC[C@H](OC(=O)CCC(=O)O)C(=O)/C=C/C(=O)O1 [BPL 81, 4-(((6S,16R,E)-16-methyl-2,5-dioxooxacyclohexadec-3-en-6-yl)oxy)-4-oxobutanoic acid]	> 250 µM	> 250	> 250 µM	3 (≈ 7.84 µM)	48 (≈ 126 µM)	48 (≈ 126 µM)	12 (≈ 31.4 µM)	96 (≈ 251 µM)	6 (≈ 15.7 µM)	55.7 (≈ 146 µM)	> 100	37.2 (≈ 97.3 µM)	47 µg/mL	MIC (S. aureus CAIRD116): 6 µg/mL (≈ 15.7 µM); antibiotic testing data (MIC), S. aureus CAIRD116 (S. aureus CAIRD116): 16 µM; MIC (S. aureus CAIRD142): 6 µg/mL (≈ 15.7 µM); antibiotic testing data (MIC), S. aureus CAIRD142 (S. aureus CAIRD142): 16 µM; MIC (S. aureus CAIRD148): 6 µg/mL (≈ 15.7 µM); antibiotic testing data (MIC), S. aureus CAIRD148 (S. aureus CAIRD148): 16 µM; MIC (S. aureus (NE277)): 6 µg/mL (≈ 15.7 µM); antibiotic testing data (MIC), S. aureus (NE277) (S. aureus (NE277)): 16 µM; MIC [2, 4]: > 100 µg/mL
C[C@@H]1CCCCCCCCCC[C@H](O)/C=C/C(=O)O1 [BPL 94, (5S,16R,E)-5-hydroxy-16-methyloxacyclohexadec-3-en-2-one]	–	–	–	34 (≈ 127 µM)	67 (≈ 250 µM)	> 67	34 (≈ 127 µM)	> 67	34 (≈ 127 µM)	43.8 (≈ 163 µM)	85.2 (≈ 317 µM)	40.7 (≈ 152 µM)	39 µg/mL	MIC [2, 4]: 20 µg/mL
C[C@@H]1CCCCCCCCC[C@H](O)[C@H](O)/C=C/C(=O)O1 [BPL 95, (5R,6S,16R,E)-5,6-dihydroxy-16-methyloxacyclohexadec-3-en-2-one]	–	–	–	48 (≈ 169 µM)	> 96	> 96	48 (≈ 169 µM)	> 96	> 96	75.6 (≈ 266 µM)	> 100	74.1 (≈ 261 µM)	> 100 µg/mL	MIC [2, 4]: 24 µg/mL
C[C@@H]1CCCCCCCCC[C@H](O)[C@H](OC(=O)CCC(=O)O)/C=C/C(=O)O1 [BPL 96, 4-(((5R,6S,16R,E)-6-hydroxy-16-methyl-2-oxooxacyclohexadec-3-en-5-yl)oxy)-4-oxobutanoic acid]	–	–	–	48 (≈ 125 µM)	> 96	> 96	48 (≈ 125 µM)	> 96	> 96	–	–	–	–	–
O=C(O)CCC(=O)O[C@H]1CCCCCCCCC[C@@H](CO)OC(=O)/C=C/[C@H]1O [BPL 98, 4-(((5R,6S,16S,E)-5-hydroxy-16-(hydroxymethyl)-2-oxooxacyclohexadec-3-en-6-yl)oxy)-4-oxobutanoic acid]	–	–	–	> 100	> 100	> 100	> 100	> 100	> 100	–	–	–	–	MIC (S. aureus CAIRD116): > 100 µg/mL; antibiotic testing data (MIC), S. aureus CAIRD116 (S. aureus CAIRD116): >250 µM; MIC (S. aureus CAIRD142): > 100 µg/mL; antibiotic testing data (MIC), S. aureus CAIRD142 (S. aureus CAIRD142): >250 µM; MIC (S. aureus CAIRD148): > 100 µg/mL; antibiotic testing data (MIC), S. aureus CAIRD148 (S. aureus CAIRD148): >250 µM; MIC (S. aureus (NE277)): > 100 µg/mL; antibiotic testing data (MIC), S. aureus (NE277) (S. aureus (NE277)): >250 µM; MMP-3 inhibition (MMP-3): weaker inhibitors
NNC(=O)c1ccncc1 [INH - Isoniazid, Isoniazid, reference compound]	–	–	–	–	–	–	–	–	–	–	–	–	0.5 µM	MIC [2, 5]: > 128 µM
CC(=O)NC[C@H]1CN(c2ccc(N3CCOCC3)c(F)c2)C(=O)O1 [LIZ - Linezolidum, Linezolidum, reference compound]	–	–	–	–	–	–	–	–	–	–	–	–	2 µM	MIC [2, 5]: 2 µM
Cc1ncc([N+](=O)[O-])n1CCO [MET - Metronidazole, Metronidazole, reference compound]	–	–	–	–	–	–	–	–	–	–	–	–	–	MIC [2, 5]: 449 µM
O=[N+]([O-])c1cn2c(n1)OC[C@@H](OCc1ccc(OC(F)(F)F)cc1)C2 [PA824, reference compound]	–	–	–	–	–	–	–	–	–	–	–	–	0.2 µM	MIC [2, 5]: 7 µM
CO[C@H]1/C=C/O[C@@]2(C)Oc3c(C)c(O)c4c(O)c(c(/C=N/N5CCN(C)CC5)c(O)c4c3C2=O)NC(=O)/C(C)=C\C=C\[C@H](C)[C@H](O)[C@@H](C)[C@@H](O)[C@@H](C)[C@H](OC(C)=O)[C@@H]1C [RMP - Rifampicin, Rifampicin, reference compound]	–	–	–	–	–	–	–	–	–	> 100	> 100	95.8 (≈ 116 µM)	> 0.1 µM	MIC [2]: 0.4 µM
COc1nc2ccc(Br)cc2cc1[C@@H](c1ccccc1)[C@@](O)(CCN(C)C)c1cccc2ccccc12 [TMC207, reference compound]	–	–	–	–	–	–	–	–	–	> 10	> 10	> 10	> 0.1 µM	MIC [2]: 0.1 µM
